Source: patent US11066447B2, “Aureobasidium derivatives and methods of synthesis” (AureoGen Biosciences, Inc., priority 2016, dated 2021)
In brackets after ≈: the same amount, converted by molar mass. Like-named read-outs stand apart in the source and are kept apart here. Numbered stars: 1 amine (or outer) side, 2 acyl side, 3 side chain; on linkers, the order of the positions; unused ones are H or OH. Square brackets hold non-standard residues; d marks the D form. Peptide text beside a SMILES is read from it. X13 = CN([C@@H](Cc1cccc(-c2ccc(N3CCN(C(=O)OC(C)(C)C)CC3)nc2)c1)C(=O)[*:2])[*:1]; X21 = CC1CCN(c2cc(-c3cccc(C[C@@H](C(=O)[*:2])N(C)[*:1])c3)ccn2)CC1; X15 = CN([C@@H](Cc1cccc(-c2ccc(N3CCOCC3)nc2)c1)C(=O)[*:2])[*:1]; X12 = CN(C)c1cc(-c2cccc(C[C@@H](C(=O)[*:2])N(C)[*:1])c2)ccn1; Hmp(2R,3S) = CC[C@H](C)[C@@H](O)C(=O)O; NMeVal(β-OH) = CN[C@H](C(=O)O)C(C)(C)O; NMeV = CN[C@H](C(=O)O)C(C)C

Assays:
[1] = system: C. neoformans MMX 0634 ATCC 90112; assay: MIC assay (CLSI microdilution); format: cell-based; conditions: Cryptococcus neoformans, ATCC90112, RPMI plus 0.002% Tween-80; read-out: MIC
[2] = system: C. albicans MMX 2000 ATCC 10231; assay: MIC assay (CLSI microdilution); format: cell-based; conditions: Candida albicans, ATCC10231, RPMI plus 0.002% Tween-80; read-out: MIC
[3] = system: C. parapsilosis MMX 2323 ATCC 22019; assay: MIC assay (CLSI microdilution); format: cell-based, Candida parapsilosis; conditions: read-out: MIC
Procedure, shortened: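 Broth microdilution MIC testing of Candida parapsilosis ATCC 22019 followed CLSI methods in RPMI-1640, with or without 0.002% Tween-80. Yeast grown 48 hours at 35° C on Sabouraud dextrose agar was suspended to a 0.5 McFarland standard and diluted 1:100 to roughly 0.5-2.5×10^3 CFU/mL. The MIC was the lowest concentration preventing visible growth.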

[4] = system: A. niger MMX 0624 ATCC 16888; assay: MIC/MEC assay (CLSI microdilution); format: cell-based; conditions: for minimal effective concentration: RPMI plus 0.002% Tween-80, read-out: MEC
Procedure, shortened: (§1)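 Test agents were assayed by CLSI broth microdilution in Tween-80-supplemented (0.002%) RPMI-1640 against spore inocula of approximately 0.2-2.5×10^4 CFU/mL. Strain MMX 5280 was run both with and without Tween-80.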

A. flavus MMX 5948 = assay: MIC/MEC assay (CLSI microdilution); format: cell-based; conditions: Aspergillus flavus, MMX5948, 48 h; for minimal effective concentration: RPMI plus 0.002% Tween-80; for MIC: RPMI plus 0.002% Tween-80, read-out: MIC
Procedure, shortened: as §1

A. fumigatus MMX 5944 = assay: MIC/MEC assay (CLSI microdilution); format: cell-based; conditions: Aspergillus fumigatus, MMX5944, 48 h; for minimal effective concentration: RPMI plus 0.002% Tween-80; for MIC: RPMI plus 0.002% Tween-80, read-out: MIC
Procedure, shortened: as §1

[5] = system: A. fumigatus MMX 6781 ATCC MYA-4609; assay: MIC/MEC assay (CLSI microdilution); format: cell-based; conditions: Aspergillus fumigatus; for MIC: 48 h, RPMI plus 0.002% Tween-80, read-out: MIC; for minimal effective concentration: RPMI plus 0.002% Tween-80, 48 hr
Procedure, shortened: as §1

[6] = system: A. fumigatus from Aureogen; assay: MIC/MEC assay (CLSI microdilution); format: cell-based; conditions: Aspergillus fumigatus, 48 h; for minimal effective concentration: RPMI plus 0.002% Tween-80; for MIC: RPMI plus 0.002% Tween-80, read-out: MIC
Procedure, shortened: as §1

[7] = system: A. fumigatus MMX 6782 ATCC 13073; assay: MIC/MEC assay (CLSI microdilution); format: cell-based; conditions: Aspergillus fumigatus, ATCC13073, 48 h; for minimal effective concentration: RPMI plus 0.002% Tween-80, read-out: MEC; for MIC: RPMI plus 0.002% Tween-80, read-out: MIC
Procedure, shortened: as §1

[8] = system: A. fumigatus MMX 5280 ATCC MYA-3626; assay: MIC/MEC assay (CLSI microdilution); format: cell-based, Aspergillus fumigatus; conditions: Aspergillus fumigatus, 48 h
Procedure, shortened: as §1

[9] = ATCC22019, RPMI plus 0.002% Tween-80
[10] = Aspergillus niger, ATCC16888, 48 h
[11] = Aspergillus niger, ATCC16888, 48 h, RPMI plus 0.002% Tween-80, read-out: MIC
[12] = RPMI plus 0.002% Tween-80, read-out: MEC
[13] = RPMI plus 0.002% Tween-80, read-out: MIC
[14] = Without Tween-80, read-out: MEC
[15] = Without Tween-80, read-out: MIC
[16] = RPMI plus 0.002% Tween-80, 48 hr

`CC[C@H](C)[C@@H]1NC(=O)[C@@H]2CCCN2C(=O)[C@H](Cc2cccc(-c3ccnc(N(C)C)c3)c2)N(C)C(=O)[C@H](Cc2ccccc2)NC(=O)[C@H](C(C)C)N(C)C(=O)[C@@H]([C@@H](C)CC)OC(=O)[C@H](C(C)(C)O)N(C)C(=O)[C@H](CC(C)C)NC(=O)[C@H](C(C)C)N(C)C1=O` [Compound 22] (cyclo(F[X12]PI[NMeV]L[NMeVal(β-OH)][Hmp(2R,3S)][NMeV])) showed an MIC [1] of 0.25 µg/mL, an MIC [2] of 0.03 µg/mL and an MIC [3, 9] of 0.06 µg/mL. The MIC ([3]; ATCC22019, Without Tween-80) was 1 µg/mL (≈ 0.819 µM), the minimal effective concentration [4, 10] was 0.25 µg/mL and the MIC [4, 11] was 0.5 µg/mL. The minimal effective concentration (A. flavus MMX 5948) was > 64 µg/mL, the MIC (A. flavus MMX 5948) was > 64 µg/mL and the minimal effective concentration (A. fumigatus MMX 5944) was > 64 µg/mL. The MIC (A. fumigatus MMX 5944) was > 64 µg/mL, the MIC [5] was > 64 µg/mL and the minimal effective concentration [5] was > 64 µg/mL. For the same compound, the minimal effective concentration [6] was > 64 µg/mL, the MIC [6] was > 64 µg/mL and the minimal effective concentration [7] was > 64 µg/mL. The MIC [7] was > 64 µg/mL, the minimal effective concentration [8, 12] was > 64 µg/mL and the MIC [8, 13] was > 64 µg/mL. The minimal effective concentration [8, 14] was > 64 µg/mL and the MIC [8, 15] was > 64 µg/mL.

For `CC[C@H](C)[C@@H]1NC(=O)[C@@H]2CCCN2C(=O)[C@H](Cc2cccc(-c3ccnc(N4CCC(C)CC4)c3)c2)N(C)C(=O)[C@H](Cc2ccccc2)NC(=O)[C@H](C(C)C)N(C)C(=O)[C@@H]([C@@H](C)CC)OC(=O)[C@H](C(C)(C)O)N(C)C(=O)[C@H](CC(C)C)NC(=O)[C@H](C(C)C)N(C)C1=O` [Compound 23] (cyclo(F[X21]PI[NMeV]L[NMeVal(β-OH)][Hmp(2R,3S)][NMeV])), the MIC [1] was 0.25 µg/mL, the MIC [2] was 0.06 µg/mL and the MIC [3, 9] was 0.12 µg/mL. It also gave an MIC ([3]; ATCC22019, Without Tween-80) of 1 µg/mL (≈ 0.784 µM), a minimal effective concentration [4, 10] of 0.12 µg/mL and an MIC [4, 11] of 0.25 µg/mL. For the same compound, the minimal effective concentration (A. flavus MMX 5948) was > 64 µg/mL, the MIC (A. flavus MMX 5948) was > 64 µg/mL and the minimal effective concentration (A. fumigatus MMX 5944) was > 64 µg/mL. The MIC (A. fumigatus MMX 5944) was > 64 µg/mL, the MIC [5] was > 64 µg/mL and the minimal effective concentration [5] was > 64 µg/mL. For the same compound, the minimal effective concentration [6] was > 64 µg/mL, the MIC [6] was > 64 µg/mL and the minimal effective concentration [7] was > 64 µg/mL. The MIC [7] was > 64 µg/mL, the minimal effective concentration [8, 12] was > 64 µg/mL and the MIC [8, 13] was > 64 µg/mL. The minimal effective concentration [8, 14] was > 64 µg/mL and the MIC [8, 15] was > 64 µg/mL.

`CC[C@H](C)[C@@H]1NC(=O)[C@@H]2CCCN2C(=O)[C@H](Cc2cccc(-c3ccc(N4CCOCC4)nc3)c2)N(C)C(=O)[C@H](Cc2ccccc2)NC(=O)[C@H](C(C)C)N(C)C(=O)[C@@H]([C@@H](C)CC)OC(=O)[C@H](C(C)(C)O)N(C)C(=O)[C@H](CC(C)C)NC(=O)[C@H](C(C)C)N(C)C1=O` [Compound 24] (cyclo(F[X15]PI[NMeV]L[NMeVal(β-OH)][Hmp(2R,3S)][NMeV])) gave an MIC [1] of 0.5 µg/mL, an MIC [2] of 0.03 µg/mL and an MIC [3, 9] of 0.12 µg/mL. For the same compound, the MIC ([3]; ATCC22019, Without Tween-80) was 1 µg/mL (≈ 0.791 µM), the minimal effective concentration [4, 10] was 0.25 µg/mL and the MIC [4, 11] was 0.25 µg/mL. The minimal effective concentration (A. flavus MMX 5948) was 0.25 µg/mL, the MIC (A. flavus MMX 5948) was 0.5 µg/mL and the minimal effective concentration (A. fumigatus MMX 5944) was > 64 µg/mL. The MIC (A. fumigatus MMX 5944) was > 64 µg/mL, the MIC [5] was > 64 µg/mL and the minimal effective concentration [5] was > 64 µg/mL. For the same compound, the minimal effective concentration [6] was > 64 µg/mL, the MIC [6] was > 64 µg/mL and the minimal effective concentration [7] was > 64 µg/mL. For the same compound, the MIC [7] was > 64 µg/mL, the minimal effective concentration [8, 12] was > 64 µg/mL and the MIC [8, 13] was > 64 µg/mL. The minimal effective concentration [8, 14] was > 64 µg/mL and the MIC [8, 15] was > 64 µg/mL.

`CC[C@H](C)[C@@H]1NC(=O)[C@@H]2CCCN2C(=O)[C@H](Cc2cccc(-c3ccc(N4CCN(C(=O)OC(C)(C)C)CC4)nc3)c2)N(C)C(=O)[C@H](Cc2ccccc2)NC(=O)[C@H](C(C)C)N(C)C(=O)[C@@H]([C@@H](C)CC)OC(=O)[C@H](C(C)(C)O)N(C)C(=O)[C@H](CC(C)C)NC(=O)[C@H](C(C)C)N(C)C1=O` [Compound 26] (cyclo(F[X13]PI[NMeV]L[NMeVal(β-OH)][Hmp(2R,3S)][NMeV])) showed an MIC [1] of 0.25 µg/mL, an MIC [2] of 0.12 µg/mL and an MIC [3, 9] of 1 µg/mL. For the same compound, the MIC ([3]; ATCC22019, Without Tween-80) was 2 µg/mL (≈ 1.47 µM), the MEC [4, 16] was 2/2 μg/mL and the MIC [4, 16] was 2/2 μg/mL. The minimal effective concentration (A. flavus MMX 5948) was > 64 µg/mL, the MIC (A. flavus MMX 5948) was > 64 µg/mL and the minimal effective concentration (A. fumigatus MMX 5944) was > 64 µg/mL. For the same compound, the MIC (A. fumigatus MMX 5944) was > 64 µg/mL, the MIC [5] was > 64 µg/mL and the minimal effective concentration [5] was > 64 µg/mL. For the same compound, the minimal effective concentration [6] was > 64 µg/mL, the MIC [6] was > 64 µg/mL and the minimal effective concentration [7] was > 64 µg/mL. For the same compound, the MIC [7] was > 64 µg/mL, the minimal effective concentration [8, 12] was > 64 µg/mL and the MIC [8, 13] was > 64 µg/mL. For the same compound, the minimal effective concentration [8, 14] was > 64 µg/mL and the MIC [8, 15] was > 64 µg/mL.
